According to PubChem BioAssay AID248 (DTP/NCI, 2004):
“And” between values parts separate entries of the source, which are not always exact repeats. Equal entries are not always repeated. Inconclusive results and toxic doses are left out. No stated cut-off is given here; in the data, active means T/C of 150% or more; inactive means T/C below 125%.

Test system: L1210 leukemia ip in BDF1 mice, survival T/C
Assay: NCI In Vivo Anticancer Drug Screen. Data for tumor model L1210 Leukemia (intraperitoneal) in B6D2F1 (BDF1) mice
Conditions: higher = longer survival
Summary of the method: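 Value reflects the ratio of survival in compound-treated mice to survival in vehicle-treated controls, with both groups carrying the same transplanted tumor.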

Measured: T/C

COc1cccc2c1C(=O)c1c(O)c3c(c(O)c1C2=O)C[C@@](O)(C(=O)CO)C[C@@H]3OC1CC(N)C(O)C(C)O1 (stereo partly specified)
inactive: endpoint: mean survival time, dose: 0.09 mg/kg/injection, schedule: Q01DX009 (ip), vehicle: saline 106 % of control | endpoint: mean survival time, dose: 0.18 mg/kg/injection, schedule: Q01DX009 (ip), vehicle: saline 107 % of control and 113 % of control | endpoint: mean survival time, dose: 0.2 mg/kg/injection, schedule: Q01DX009 (ip), vehicle: water 112 % of control | endpoint: mean survival time, dose: 0.28 mg/kg/injection, schedule: Q04DX002 (ip), vehicle: saline 110 % of control and 120 % of control | endpoint: mean survival time, dose: 0.3 mg/kg/injection, schedule: Q01DX015 (ip), vehicle: clinical formulation 116 % of control | endpoint: mean survival time, dose: 0.44 mg/kg/injection, schedule: Q01DX015 (ip), vehicle: clinical formulation 119 % of control | endpoint: mean survival time, dose: 0.5 mg/kg/injection, schedule: Q01DX003 (ip), vehicle: water 115 % of control | endpoint: mean survival time, dose: 0.5 mg/kg/injection, schedule: Q## X Z (ip), vehicle: water 113 % of control | endpoint: mean survival time, dose: 0.55 mg/kg/injection, schedule: Q04DX002 (ip), vehicle: saline 103 % of control and 108 % of control | endpoint: mean survival time, dose: 1.0 mg/kg/injection, schedule: Q01DX009 (sc), vehicle: clinical formulation 107 % of control | endpoint: mean survival time, dose: 1.0 mg/kg/injection, schedule: Q03HX024 (ip), vehicle: water 111 % of control | endpoint: mean survival time, dose: 1.0 mg/kg/injection, schedule: Q04DX004 (ip), vehicle: clinical formulation 117 % of control | endpoint: mean survival time, dose: 1.5 mg/kg/injection, schedule: Q01DX009 (sc), vehicle: clinical formulation 108 % of control | endpoint: mean survival time, dose: 2.0 mg/kg/injection, schedule: Q03HX024 (ip), vehicle: water 93 % of control | endpoint: mean survival time, dose: 2.2 mg/kg/injection, schedule: Q01DX009 (sc), vehicle: clinical formulation 113 % of control | endpoint: mean survival time, dose: 3.0 mg/kg/injection, schedule: Q01DX009 (ip), vehicle: saline 107 % of control | endpoint: mean survival time, dose: 3.3 mg/kg/injection, schedule: Q01DX009 (sc), vehicle: clinical formulation 117 % of control | endpoint: mean survival time, dose: 4.0 mg/kg/injection, schedule: Q01DX008 (ip), vehicle: saline 98 % of control | endpoint: mean survival time, dose: 4.9 mg/kg/injection, schedule: Q01DX009 (sc), vehicle: clinical formulation 110 % of control | endpoint: mean survival time, dose: 5.0 mg/kg/injection, schedule: Q01DX009 (ip), vehicle: saline 93 % of control | endpoint: mean survival time, dose: 20.0 mg/kg/injection, schedule: Q01DX001 (ip), vehicle: saline 108 % of control | endpoint: mean survival time, dose: 100.0 micrograms/kg/injection, schedule: Q03HX032 (ip), vehicle: clinical formulation 117 % of control | endpoint: mean survival time, dose: 150.0 micrograms/kg/injection, schedule: Q03HX032 (ip), vehicle: clinical formulation 120 % of control | endpoint: median survival time, dose: 0.12 mg/kg/injection, schedule: Q03HX008 (ip), vehicle: water 120 % of control | endpoint: median survival time, dose: 0.13 mg/kg/injection, schedule: Q03HX008 (ip), vehicle: water 119 % of control | endpoint: median survival time, dose: 0.23 mg/kg/injection, schedule: Q04DX003 (ip), vehicle: water 113 % of control | endpoint: median survival time, dose: 0.25 mg/kg/injection, schedule: Q01DX009 (ip), vehicle: water 115 % of control | endpoint: median survival time, dose: 0.28 mg/kg/injection, schedule: Q03HX008 (ip), vehicle: water 111 % of control | endpoint: median survival time, dose: 0.47 mg/kg/injection, schedule: Q03HX008 (ip), vehicle: water 111 % of control | endpoint: median survival time, dose: 0.5 mg/kg/injection, schedule: Q01DX001 (ip), vehicle: water 113 % of control and 116 % of control | endpoint: median survival time, dose: 0.5 mg/kg/injection, schedule: Q01DX009 (ip), vehicle: water 115 % of control and 119 % of control | endpoint: median survival time, dose: 0.5 mg/kg/injection, schedule: Q03HX024 (ip), vehicle: water 114 % of control | endpoint: median survival time, dose: 0.65 mg/kg/injection, schedule: Q01DX005 (sc), vehicle: water 110 % of control | endpoint: median survival time, dose: 0.65 mg/kg/injection, schedule: Q01DX009 (ip), vehicle: water 104 % of control | endpoint: median survival time, dose: 0.65 mg/kg/injection, schedule: Q03HX008 (sc), vehicle: water 110 % of control | endpoint: median survival time, dose: 0.75 mg/kg/injection, schedule: Q04DX003 (ip), vehicle: water 109 % of control | endpoint: median survival time, dose: 0.78 mg/kg/injection, schedule: Q03HX008 (ip), vehicle: water 105 % of control | endpoint: median survival time, dose: 1.0 mg/kg/injection, schedule: Q01DX009 (ip), vehicle: water 115 % of control | endpoint: median survival time, dose: 1.0 mg/kg/injection, schedule: Q03HX024 (ip), vehicle: water 93 % of control and 110 % of control | endpoint: median survival time, dose: 1.0 mg/kg/injection, schedule: Q04DX003 (ip), vehicle: water 119 % of control | endpoint: median survival time, dose: 1.0 mg/kg/injection, schedule: Q## X001 (ip), vehicle: saline 113 % of control | endpoint: median survival time, dose: 1.08 mg/kg/injection, schedule: Q01DX005 (sc), vehicle: water 105 % of control | endpoint: median survival time, dose: 1.08 mg/kg/injection, schedule: Q01DX009 (ip), vehicle: water 104 % of control and 113 % of control | endpoint: median survival time, dose: 1.17 mg/kg/injection, schedule: Q04DX003 (ip), vehicle: water 100 % of control | endpoint: median survival time, dose: 1.25 mg/kg/injection, schedule: Q04DX003 (ip), vehicle: water 115 % of control | endpoint: median survival time, dose: 1.5 mg/kg/injection, schedule: Q04DX003 (ip), vehicle: water 102 % of control | endpoint: median survival time, dose: 1.75 mg/kg/injection, schedule: Q04DX003 (ip), vehicle: water 100 % of control | endpoint: median survival time, dose: 1.8 mg/kg/injection, schedule: Q01DX001 (ip), vehicle: water 95 % of control and 113 % of control and 120 % of control | endpoint: median survival time, dose: 1.8 mg/kg/injection, schedule: Q01DX005 (sc), vehicle: water 110 % of control | endpoint: median survival time, dose: 1.8 mg/kg/injection, schedule: Q01DX009 (ip), vehicle: water 109 % of control and 113 % of control | endpoint: median survival time, dose: 1.8 mg/kg/injection, schedule: Q08DX002 (ip), vehicle: water 100 % of control and 118 % of control | endpoint: median survival time, dose: 2.0 mg/kg/injection, schedule: Q01DX009 (ip), vehicle: water 104 % of control | endpoint: median survival time, dose: 2.0 mg/kg/injection, schedule: Q## X001 (ip), vehicle: saline 118 % of control | endpoint: median survival time, dose: 2.6 mg/kg/injection, schedule: Q04DX003 (ip), vehicle: water 116 % of control | endpoint: median survival time, dose: 3.0 mg/kg/injection, schedule: Q01DX009 (ip), vehicle: water 109 % of control | endpoint: median survival time, dose: 3.0 mg/kg/injection, schedule: Q08DX002 (ip), vehicle: water 100 % of control and 118 % of control | endpoint: median survival time, dose: 3.0 mg/kg/injection, schedule: Q12DX002 (ip), vehicle: water 117 % of control | endpoint: median survival time, dose: 3.9 mg/kg/injection, schedule: Q01DX001 (ip), vehicle: water 105 % of control | endpoint: median survival time, dose: 5.0 mg/kg/injection, schedule: Q12DX002 (ip), vehicle: water 119 % of control | endpoint: median survival time, dose: 5.9 mg/kg/injection, schedule: Q04DX003 (ip), vehicle: water 111 % of control | endpoint: median survival time, dose: 6.0 mg/kg/injection, schedule: Q01DX001 (ip), vehicle: water 115 % of control | endpoint: median survival time, dose: 6.0 mg/kg/injection, schedule: Q04DX003 (ip), vehicle: water 103 % of control | endpoint: median survival time, dose: 8.0 mg/kg/injection, schedule: Q04DX003 (ip), vehicle: water 94 % of control and 97 % of control (2×) | endpoint: median survival time, dose: 8.3 mg/kg/injection, schedule: Q04DX003 (ip), vehicle: water 116 % of control | endpoint: median survival time, dose: 8.4 mg/kg/injection, schedule: Q08DX002 (ip), vehicle: water 104 % of control and 118 % of control | endpoint: median survival time, dose: 8.9 mg/kg/injection, schedule: Q04DX003 (ip), vehicle: water 100 % of control | endpoint: median survival time, dose: 10.0 mg/kg/injection, schedule: Q04DX003 (ip), vehicle: water 94 % of control and 100 % of control and 103 % of control | endpoint: median survival time, dose: 10.0 mg/kg/injection, schedule: Q08DX002 (ip), vehicle: water 111 % of control | endpoint: median survival time, dose: 12.0 mg/kg/injection, schedule: Q01DX001 (ip), vehicle: water 120 % of control | endpoint: median survival time, dose: 13.3 mg/kg/injection, schedule: Q01DX001 (ip), vehicle: water 105 % of control | endpoint: median survival time, dose: 14.0 mg/kg/injection, schedule: Q08DX002 (ip), vehicle: water 95 % of control and 104 % of control | endpoint: median survival time, dose: 24.0 mg/kg/injection, schedule: Q01DX001 (ip), vehicle: water 114 % of control

CSc1nc2c(c(=O)[nH]1)C1C=C(C)CCC1C(C)(C)C2 (stereo unspecified)
inactive: endpoint: mean survival time, dose: 100.0 mg/kg/injection, schedule: Q04DX002 (ip), vehicle: Klucel (hydroxypropylcellulose) (HPC) 98 % of control | endpoint: mean survival time, dose: 200.0 mg/kg/injection, schedule: Q04DX002 (ip), vehicle: Klucel (hydroxypropylcellulose) (HPC) 96 % of control

COc1ccc(NC(=O)N(O)C2(C#N)CCCCC2)cc1
inactive: endpoint: mean survival time, dose: 100.0 mg/kg/injection, schedule: Q01DX001 (ip), vehicle: carboxymethylcellulose (CMC) 98 % of control | endpoint: mean survival time, dose: 200.0 mg/kg/injection, schedule: Q01DX001 (ip), vehicle: carboxymethylcellulose (CMC) 94 % of control | endpoint: mean survival time, dose: 400.0 mg/kg/injection, schedule: Q01DX001 (ip), vehicle: carboxymethylcellulose (CMC) 88 % of control

CCC1(CC)NC(=O)N(CCO)C1=O
inactive: endpoint: mean survival time, dose: 50.0 mg/kg/injection, schedule: Q04DX003 (ip), vehicle: saline 110 % of control | endpoint: mean survival time, dose: 100.0 mg/kg/injection, schedule: Q04DX003 (ip), vehicle: saline 95 % of control | endpoint: mean survival time, dose: 200.0 mg/kg/injection, schedule: Q04DX003 (ip), vehicle: saline 106 % of control | endpoint: mean survival time, dose: 400.0 mg/kg/injection, schedule: Q04DX003 (ip), vehicle: saline 105 % of control
